Consider three compounds from patent EP2436673A1 (Niaraki, Anna, priority 2010, dated 2012).

For one assay, the target named is T1, Aβ1-42 monomers (Homo sapiens, UniProt P05067).
T1 construct: The native Aβ1-42 peptide was then obtained from the depsi peptide; made in house; host or cells: chemical peptide synthesis (depsi-peptide, then pH switch)
Description: Surface Plasmon Resonance (SPR) binding to immobilized Aβ1-42 monomers. The procedure:
(§1) For these studies we used the ProteOn XPR36 (Biorad) apparatus, which has six parallel flow channels that can be used to uniformly immobilize strips of six "ligands" on the sensor surface. Aβ1-42 "monomers" or fibrils were immobilized in two of these parallel-flow channels of a GLC sensor chip (Biorad) using amine-coupling chemistry. Briefly, after surface activation the peptide solutions (10 µM in acetate buffer pH 4.0) were injected for 5 min at a flow rate of […], and the remaining activated groups were blocked with ethanolamine, pH 8.0. Bovine serum albumin (BSA) was also immobilized in another parallel flow channel, as a reference protein. […] A fourth surface was prepared using the same immobilization procedure but without addition of the peptide ("empty", reference surface).
(§2) The fluidic system of Proteon XPR36 can automatically rotate 90° so that up to six different "analytes" (e.g. different liposomes prepations, or different concentrations of the same preparation) could be injected simultaneously over all the different immobilized molecules.
(§3) ProteOn analysis software (BioRad) was used for the fitting of sensorgrams, to obtain the association and dissociation rate constants of the binding (Kon and Koff) and the corresponding KD value. The simplest 1:1 interaction model (Langmuir model) is used at first.

The target of another assay is T2, Aβ1-42 fibrils (Homo sapiens, UniProt P05067).
T2 construct: made in house; host or cells: chemical peptide synthesis (depsi-peptide, pH switch, then acid incubation to fibrils)
Put plainly: Surface Plasmon Resonance (SPR) binding to immobilized Aβ1-42 fibrils. The procedure: To prepare Aβ1-42 fibrils, the switched peptide solution was diluted with water to 100 µM, acidified to pH 2.0 with 1 M HCl, and left to incubate for 24 hrs at 37 °C [56].
as §1, §2, §3

In a further assay the test system is Aβ aggregation. The note with it: reported in literature; cited from earlier work.
Setting [1] is: SPR, liposomes 18 at 300 nM exposed curcumin-derivative, plain liposomes at 1360 nM.
Where [2] appears, read: additional, fibril-specific binding component, two-sites model.

By Kd is commonly meant the concentration at which binding is half-saturated. In general, koff refers to the first-order rate constant of dissociation. High values mean a short-lived complex, low ones a long-lived complex. As usually defined, the kon is the rate constant with which the complex forms.

T2 sequence (P05067 672-713 limits assumed): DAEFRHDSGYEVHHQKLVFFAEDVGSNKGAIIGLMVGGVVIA
T1 sequence (P05067 672-713 limits assumed): as above

With `Nc1c(/N=N/c2ccc(-c3ccc(/N=N/c4cc(S(=O)(=O)O)c5ccccc5c4N)cc3)cc2)cc(S(=O)(=O)O)c2ccccc12` [Congo-Red, reference compound], at Aβ1-42 monomers (setting [1]), the “binding to Aβ1-42 monomers (in words)” value is given as “only bound to Aβ fibrils but not "monomers"”. For the same compound, the “binding to Aβ1-42 fibrils (in words)” value on Aβ1-42 fibrils (setting [1]) is on record as “only bound to Aβ fibrils”.
Consider `COc1cc(/C=C/c2cc(/C=C/c3ccc(O)c(OC)c3)n(CC(=O)NCc3cn(CCOCCOCCO)nn3)n2)ccc1O` [TREG, 2-(3,5-bis((E)-4-hydroxy-3-methoxystyryl)-1H-pyrazol-1-yl)-N-((1-(2-(2-(2-hydroxyethoxy)ethoxy)ethyl)-1H-1,2,3-triazol-4-yl)methyl)acetamide], for which the dissociation constant (Kd) on Aβ1-42 monomers (Aβ1-42 monomers, rough estimate from Kon and Koff after global fitting, one-site model) was 23 µM. Also, on Aβ1-42 fibrils (setting [2]), binding was characterised by a dissociation constant (Kd) of 7 µM, the koff is 0.001 s⁻¹ and the on-rate (kon) came to 163 M⁻¹ s⁻¹.
With `COc1cc(/C=C/C(=O)CC(=O)/C=C/c2ccc(O)c(OC)c2)ccc1O` [curcumin, Curcumin], the “inhibition of Aβ aggregation (in words)” value with Aβ aggregation is “inhibits Aβ aggregation in the low µM range”.
